Tested on: human neutrophils
Experiment: PMN transmigration assay (Salmonella typhimurium-infected T84 monolayer, HXA3/MRP2-driven neutrophil migration, MPO readout)
Format: cell-based
Settings: dose of 100 nM, result in words
Procedure: PMN transmigration assay. T84 colorectal cancer cells were grown to confluence on the bottom side of 12 well polycarbonate membrane inserts of a 24 well Transwell® plate. The confluent growth of these epithelial cells results in physiologically-relevant apical (luminal) and basolateral surfaces in the transwells. […] The monolayer was then infected on the apical surface with Salmonella typhimurium for 2 hours to induce hepoxilin A3 (HXA3) efflux through the MRP2 membrane protein and into the apical chamber. […] Freshly isolated and prepared human neutrophils were then added to the basolateral side and allowed to transmigrate through the monolayer for 2 hours. The number of neutrophils migrated to the apical chamber (due to the HXA3 gradient) was then assayed by determination of myeloperoxidase activity (a neutrophil biomarker). Inhibition of transmigration is indicated by lower MPO activity in the apical chamber.

| Compound | inhibition of neutrophil migration |
| --- | --- |
| CC[C@@H]1NC(=O)[C@H]([C@H](O)[C@H](C)CCCCC(=O)O)N(C)C(=O)[C@H](C(C)C)N(C)C(=O)[C@H](CC(C)C)N(C)C(=O)[C@H](CC(C)C)N(C)C(=O)[C@@H](C)NC(=O)[C@H](C)NC(=O)[C@H](CC(C)C)N(C)C(=O)[C@H](C(C)C)NC(=O)[C@H](CC(C)C)N(C)C(=O)CN(C)C1=O [BT122] | exhibit inhibition |
| CC[C@@H]1NC(=O)[C@H]([C@H](O)[C@H](C)CCCCCCC(=O)O)N(C)C(=O)[C@H](C(C)C)N(C)C(=O)[C@H](CC(C)C)N(C)C(=O)[C@H](CC(C)C)N(C)C(=O)[C@@H](C)NC(=O)[C@H](C)NC(=O)[C@H](CC(C)C)N(C)C(=O)[C@H](C(C)C)NC(=O)[C@H](CC(C)C)N(C)C(=O)CN(C)C1=O [BT125] | exhibit inhibition |

From patent US20240277798A1, “CYCLOSPORINE COMPOSITIONS AND METHODS OF USE” (Bacainn Biotherapeutics, Ltd., priority 2021, published 2024)
